Experimental data from patent publication US20040029928A1, “Novel propenohydroxamic acid derivatives” (priority 2000, published 2004).

Key:
MMP-1 = target: T1, MMP-1 (Homo sapiens, UniProt P03956); test: Measurement of MMP-1 inhibitory activity; assay type: biochemical; conditions: MMP-1 (Cosmo Bio), fluorogenic substrate
T1 construct: purchased Cosmo Bio Co
T1 sequence (P03956 100-469): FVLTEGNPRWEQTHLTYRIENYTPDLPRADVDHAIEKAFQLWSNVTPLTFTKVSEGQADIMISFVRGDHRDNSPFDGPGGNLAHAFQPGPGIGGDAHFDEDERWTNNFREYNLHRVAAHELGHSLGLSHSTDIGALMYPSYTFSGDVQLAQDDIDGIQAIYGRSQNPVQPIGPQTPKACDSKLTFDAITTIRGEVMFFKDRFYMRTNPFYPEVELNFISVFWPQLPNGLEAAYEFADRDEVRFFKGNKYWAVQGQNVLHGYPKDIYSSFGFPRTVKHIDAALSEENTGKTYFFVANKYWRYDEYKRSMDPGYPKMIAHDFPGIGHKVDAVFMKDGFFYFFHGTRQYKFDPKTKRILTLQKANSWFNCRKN
Method: Test 2 (Measurement of MMP-1 Inhibitory Activity)
MMP-1 inhibitory activity (IC50 value) was measured in accordance with the above-described measuring method of TACE inhibitory activity by using MMP-1 (product of Cosmo Bio Co.) and, as a substrate, 7-methoxycoumarin-4-yl-acetyl-PLGL-[N^3-(2,4-dinitrophenyl)2,3-diaminopropionyl]-AR—NH2 (product of Peptide Institute Inc.). The fluorescence intensity was measured using POLAR STAR (Ex: 340 nm, Em: 405 nm).

[1] = target: T2, TACE (crude extracted protein from membrane fraction of THP-1 cells) (Homo sapiens, UniProt P78536); test: In vitro TACE inhibitory activity (fluorogenic peptide substrate); assay type: biochemical; conditions: crude TACE 10 μg/mL, substrate 20 μM, room temperature, at least 4 hours
T2 construct: The supernatant was collected, which was provided for use as a TACE crude extract; endogenous in cells; host or cells: THP-1 cells stimulated with LPS, silica and hydroxyurea; membrane fraction solubilised with 1% Triton X-100
Method: Test 1 (In Vitro TACE Inhibitory Activity)
(1) Crude Extraction of TACE from THP-1 Cell Membrane
To THP-1 cells (cell density: 2×10^6/mL) suspended in RPMI 1640 medium containing 1% FBS were added LPS (E. coli 055:B55, final concentration: 1 pg/mL), silica (0.014 μm, final concentration: 50 μg/mL) and hydroxyurea (final concenration: 2 mM), followed by cultivation at 37° C. for 16 hours under 5%-CO2 conditions. The resulting cells were then washed once with RPMI 1640 medium free of FBS. The cells were suspended in 3 times the pellet volume of Solution A (10 mM sodium phosphate (pH 7.4), 1 mM MgCl2, 30 mM NaCl, 0.02% NaN3, 5 μM PMSF (phenyl methyl sulfonyl fluoride)). The cells were ground by a Polytron homogenizer (5 sec×5 times, ice cooling for 1 to 2 minutes each time). The homogenate solution was stacked over 41% sucrose-Solution A, followed by centrifugation (150,000 g×1 hour). After centrifugation, the intermediate layer was collected and diluted with 4 volumes of Solution A, followed by centrifugation (150,000 g×20 min). A sufficient amount of a solubilizing solution (1%-Triton X-100-A solution) was added (protein concentration: 1 mg/mL) and the mixture was stirred (4° C.×1 hour). Stirring was followed by centrifugation (100,000 g×30 min, 4° C.). The supernatant was collected, which was provided for use as a TACE crude extract.
(2) Measurement of TACE Inhibitory Activity
TACE (crude extracted protein from membrane fraction of THP-1 cells, final concentration: 10 μg/mL), each of test compounds (DMSO final concentration: 1%) shown in Table 1 and an incubate solution (50 mM Tris-HCl (pH 7.4), 5 mM CaCl2, 0.002% NaN3, 0.002% Brij 35) was added to a 96-well black plate. After pre-incubation at room temperature for 30 minutes, a substrate (N-methylanthranilyl-LAQAVRSK(DNP)rr-NH2: product of PEPTIDE INSTITUTE, INC., final concentration: 20 μM) was added, followed by incubation at room temperature for at least 4 hours. The fluorescence intensity was measured using POLAR STAR (Ex: 340 nm, Em: 430 nm) and from it, TACE inhibitory activity (IC50 value) was calculated.

[2] = tested on: secretion of TNF-α, THP-1 cells; test: Inhibitory activity against secretion of TNF-α in LPS-stimulated THP-1 cells (ELISA); assay type: cell-based; conditions: Homo sapiens, LPS 100 ng/mL, 37° C., 4 hours, ELISA of supernatant
Method: Test 3 (Measurement of Inhibitory Activity Against on of TNF-α)
To THP-1 cells (5×10^5 mL) suspended in RPMI 1640 medium containing 10% FBS were added LPS (100 ng/mL) and a medicament of various concentrations (DMSO final concentration: 0.1%), followed by incubation at 37° C. for 4 hours under 5%-CO2 conditions. The TNF-α in the cultured supernatant was analyzed by ELISA, whereby inhibitory activity (IC50) against secretion of TNF-α was calculated.

T2 sequence (P78536 215-824): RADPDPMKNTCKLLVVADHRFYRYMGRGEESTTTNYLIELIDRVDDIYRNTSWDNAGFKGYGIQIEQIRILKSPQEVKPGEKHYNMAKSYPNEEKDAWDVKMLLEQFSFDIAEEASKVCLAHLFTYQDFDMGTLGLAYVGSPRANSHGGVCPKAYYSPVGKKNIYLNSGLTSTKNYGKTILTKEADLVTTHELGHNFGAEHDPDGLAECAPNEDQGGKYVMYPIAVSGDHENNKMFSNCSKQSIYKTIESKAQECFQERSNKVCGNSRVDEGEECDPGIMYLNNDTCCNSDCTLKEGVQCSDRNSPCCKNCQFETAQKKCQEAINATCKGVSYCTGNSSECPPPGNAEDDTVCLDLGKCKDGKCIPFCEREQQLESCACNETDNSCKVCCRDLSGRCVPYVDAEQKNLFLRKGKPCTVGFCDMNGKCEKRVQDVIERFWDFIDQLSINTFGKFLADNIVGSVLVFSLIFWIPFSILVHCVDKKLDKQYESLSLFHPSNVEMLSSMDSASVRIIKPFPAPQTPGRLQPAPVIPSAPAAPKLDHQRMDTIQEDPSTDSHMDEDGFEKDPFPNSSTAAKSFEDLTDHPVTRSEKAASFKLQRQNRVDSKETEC

IC50 (MMP-1) [nM] | IC50 [1] [nM] | melting point [°C] | IC50 [2] [nM] | Structure (SMILES)
> 10000 | 13 | 98 to 101 | 6400 | COc1ccc(S(=O)(=O)N(C)c2cccc(/C(=C\C(=O)NO)c3ccccc3)c2)cc1OC [Compound 75, Z-3-[3-[N-(3,4-Dimethoxybenzenesulfonyl)-N-methylamino]phenyl]-3-phenylpropenohydroxamic acid]
> 10000 | 13 | – | 5500 | COc1ccc(S(=O)(=O)N(c2cccc(/C(=C\C(=O)NO)c3ccc[n+]([O-])c3)c2)C(C)C)cc1 [Compound 93, E-3-[3-[N-(4-methoxybenzenesulfonyl)-N-isopropylamino]phenyl]-3-(3-pyridyl N-oxide)propenohydroxamic Acid]
> 10000 | 13 | – | – | COc1ccc(S(=O)(=O)N(C)c2cccc(/C(=C\C(=O)NO)c3ccc[n+]([O-])c3)c2)cc1 [Compound 94, E-3-[3-[N-(4-Methoxybenzenesulfonyl)-N-methylamino]phenyl]-3-(3-pyridyl N-oxide)propenohydroxamic Acid]

Further lines, the compound ahead of its results:

Structure (SMILES) | IC50 (MMP-1) [nM] | IC50 [1] [nM] | melting point [°C] | IC50 [2] [nM]
CN(c1cccc(/C(=C\C(=O)NO)c2ccccc2)c1)S(=O)(=O)c1ccc([N+](=O)[O-])cc1 [Compound 68, Z-3-[3-[N-(4-Nitrobenzenesulfonyl)-N-methylamino]phenyl]-3-phenylpropenohydroxamic Acid] | > 10000 | 35 | 153 to 155 | –
COc1ccc(S(=O)(=O)N(c2cccc(/C(=C\C(=O)NO)c3cccnc3)c2)C(C)C)cc1 [Compound 88, E-3-[3-[N-(4-Methoxybenzenesulfonyl)-N-isopropylamino]phenyl]-3-(3-pyridyl)propenohydroxamic acid] | > 10000 | 6.4 | 158 to 160 | 2800
COc1ccc(S(=O)(=O)N(C)c2cccc(/C(=C\C(=O)NO)c3cccnc3)c2)cc1 [Compound 89, E-3-[3-[N-(4-Methoxybenzenesulfonyl)-N-methylamino]phenyl]-3-(3-pyridyl)propenohydroxamic Acid] | > 10000 | 7 | – | 4100
